Assay results published in patent EP4772186A1, “USE AND COMPOSITION OF POSTBIOTIC OF LACTOBACILLUS PARACASEI ET-22” (Inner Mongolia Yili Industrial Group Co., Ltd., priority 2023, dated 2025).

Tested on: VSC concentration
Experiment: in vitro Halimeter determination of VSC concentration in saliva fermentation
Format: cell-based, halitosis subjects (saliva)
Conditions: compared with CK group, anaerobic cultivation 10 hours
Procedure: Fresh saliva was collected from 10 halitosis subjects (Halimeter index >120). Subjects were required not to consume any food or drink for 2 hours before donating saliva. Saliva was directly spat into a saliva collection tube, 5 ml per person, and mixed. The mixture was centrifuged at 4500 rpm for 10 minutes, and the supernatant was collected, aliquoted, and stored at -80°C for subsequent experimental studies.
(§1) Lysate observation group: In a 10 ml sample vial, 100 µl of saliva was added first, followed by the separate addition of ET-22 viable bacteria (1.0×10^9 CFU/ml), ET-22 heat-inactivated bacterial cells (obtained by inactivating viable bacteria at 1.0×10^9 CFU/ml), and lysate (obtained by inactivating and then filtering viable bacteria at 1.0×10^9 CFU/ml), each at 100µl. Then, 1.8 ml of SHI medium was added. After filling with nitrogen, anaerobic cultivation was performed for 10 hours. Then, the obtained culture was placed in a 60°C water bath for 30-min incubation. VSC concentration was measured using the in vitro Halimeter method.
(§2) Group of two nucleotides: In a 10 ml sample vial, 100 µl of saliva was added first, followed by the separate addition of ET-22 viable bacteria (1.0×10^9 CFU/ml), ET-22 heat-inactivated bacterial cells (obtained by inactivating viable bacteria at 1.0×10^9 CFU/ml), NAD, and FAD (500 µg/ml, 100 µg/ml, 10 µg/ml), each at 100µl. Then, 1.8 ml of SHI medium was added. After filling with nitrogen, anaerobic cultivation was performed for 10 hours. Then, the obtained culture was placed in a 60°C water bath for 30-min incubation. VSC concentration was measured using the in vitro Halimeter method.
as §2, with “five organic acids:” for “two nucleotides:”, “heat-inactivating” for “inactivating”, “CFU/ml),” for “CFU/ml), NAD,”, “five organic acid components” for “FAD”
as §2, with “Observation group” for “Group”, “four polypeptides:” for “two nucleotides:”, “heat-inactivating” for “inactivating”, “CFU/ml),” for “CFU/ml), NAD,”, “components of four polypeptides” for “FAD”
as §1, with “Peptidoglycan” for “Lysate observation”, “peptidoglycan (peptidoglycan extracted from” for “lysate (obtained by inactivating and then filtering”, “CFU/ml).” for “CFU/ml), each at 100µl.”, “method. […]” for “method.”

Measured: VSC concentration

Cc1cc2nc3c(=O)[nH]c(=O)nc-3n(C[C@H](O)[C@H](O)[C@H](O)COP(=O)(O)OP(=O)(O)OC[C@H]3O[C@@H](n4cnc5c(N)ncnc54)[C@H](O)[C@@H]3O)c2cc1C [FAD, Flavin adenine dinucleotide (FAD)]
no significant change: high concentration (500 µg/ml) | low concentration (10 µg/ml) | medium concentration (100 µg/ml)
